The text below walks through data of paper PMC10895678 (Journal of Medicinal Chemistry, 2024).

The data set relates to HepG2 cells. In words: HepG2 mitochondrial dysfunction (Glu/Gal cytotoxicity, MTT). In kind it is cell-based. The settings on record: glucose medium. On the procedure: Compounds were solubilized to 30 mM in DMSO. The BGAz compounds were added to the HepG2 cell model in a 96-well microplate in half log dilutions from 100–0.0003 μM (final DMSO concentration 0.3%) using both glucose (DMEM consisting of 25 mM glucose) and galactose (DMEM consisting of 10 mM galactose) media. The compounds were incubated with the cell line for 24 h at 37 °C in a humidified CO2 tissue culture incubator, followed by cell viability staining with MTT (3-(4,5-dimethylthiazol-2-yl)-2.5-diphenyltetrazolium bromide) conversion to the Formazan product, determined by absorbance measurement. The cell viability IC50 was determined in HepG2 glucose and metabolism-modified HepG2 galactose, and the fold change difference between the Glu/Gal IC50 was determined. All experiments were performed in duplicate with the mitochondrial toxicity controls rotenone and Antimycin A and the cytotoxin control tamoxifen.

As for `Brc1cc(Br)cc(C2CC(CN3CCCC3)N2Cc2ccccc2Br)c1` (stereo not shown) [BGAz-004], the “HepG2 cytotoxicity (in words)” value is “negligible effect”.
